Assays:
[1] = in vivo; cited from earlier work
blood lymphocytes = experiment: Zinc dose response: lymphocyte response to PHA (stimulation index); format: in vivo, human; conditions: children age 4-12 years, diet zinc 5 mg, median (standard deviation)
Procedure: (§1) The basic concept underlying the assessment of the most optimum nutrient amounts for a given age group uses the principle of“dose-response curves”. At least four groups of individuals were provided with various amounts of a given nutrient and their immune responses were measured using established and accepted techniques. The amount of a nutrient that gave the best response was considered the optimum amount. Dose response curves were determined for all vitamins and trace elements considered essential for human health, particularly immunity.
Data for the dose response curve for zinc in a group of 4 to 12 year old children is shown in FIGS. 1 and 2, with the total amount of zinc taken is shown for each group. To determine the magnitude of immune response, an aliquot of blood was withdrawn from each subject in the study, blood lymphocytes were separated, washed and mixed with the mitogen phytohemagglutinin (PHA) in previously determined optimum amount. The optimum amount of PHA used in the experiments was predetermined by a set of dose response curves using lymphocytes of a healthy donor and four different concentrations of PHA. After culture in a sterile environment for 72 hours, the cells were washed and mixed with radioactive thymidine. The same steps were undertaken in a control sample in which only the culture medium was used, not PHA. The cells were washed and radioactivity determined.
(§2) The ratio of radioactivity in the test samples divided by radioactivity in control samples gave the “stimulation response” shown in FIGS. 1 and 2.

Interleukin-2 = experiment: Zinc dose response: interleukin-2; format: in vivo, human; conditions: children age 4-12 years, median (standard deviation)
Procedure: as §1, §2

Antibody response = experiment: Zinc dose response: antibody response; format: in vivo, human; conditions: children age 4-12 years
Procedure: as §1, §2

Thymulin activity = experiment: Zinc dose response: thymulin activity; format: in vivo, human; conditions: children age 4-12 years
Procedure: as §1, §2

| SMILES | biologic half-life in the body [1] | Lymphocyte response to PHA (stimulation index) (blood lymphocytes; 7 mg supplemental zinc) | Lymphocyte response to PHA (stimulation index) (blood lymphocytes; 20 mg supplemental zinc) | Lymphocyte response to PHA (stimulation index) (blood lymphocytes; 50 mg supplemental zinc) | Interleukin-2 (Interleukin-2; 7 mg supplemental zinc) | Interleukin-2 (Interleukin-2; 20 mg supplemental zinc) | Interleukin-2 (Interleukin-2; 50 mg supplemental zinc) | Antibody response (median reciprocal titre) (Antibody response; 7 mg supplemental zinc) | Antibody response (median reciprocal titre) (Antibody response; 20 mg supplemental zinc) | Antibody response (median reciprocal titre) (Antibody response; 50 mg supplemental zinc) | Thymulin activity (median reciprocal titre) (Thymulin activity; 7 mg supplemental zinc) | Thymulin activity (median reciprocal titre) (Thymulin activity; 20 mg supplemental zinc) | Thymulin activity (median reciprocal titre) (Thymulin activity; 50 mg supplemental zinc) |
| --- | --- | --- | --- | --- | --- | --- | --- | --- | --- | --- | --- | --- | --- |
| Cc1ncc(C[n+]2csc(CCO)c2C)c(N)n1 [Thiamin] | about 15 days |  |  |  |  |  |  |  |  |  |  |  |  |
| [Zn] [zinc] |  | 86(11) | 54(9) | 41(8) | 16(2.0) units/ml | 11(1.5) units/ml | 8(1.3) units/ml | 318 | 129 | 73 | 216 | 187 | 166 |

From US6565891B1, “Nutritional supplement for children” (Tsar Health Private Ltd., priority 2002, dated 2003)
